Results from US20150346599A1, “PHOTO-DESTROYABLE QUENCHER AND ASSOCIATED PHOTORESIST COMPOSITION, AND DEVICE-FORMING METHOD” (Rohm and Haas Electronic Materials LLC, priority 2014, published 2015).

Assays:
[1] = Shelf life testing: compound stability in solution by 1H NMR peak integration; conditions: 100 millimolar in deuterated dimethylsulfoxide; for Compound Purity (%) 0 days / Compound Purity (%) 3 days / Compound Purity (%) 14 days: 1H NMR at 25° C.
Experimental: Compound stability was monitored by peak integration using ^1H NMR at 25° C. with relaxation delay set to 5 seconds on a 300 Megahertz Varian NMR spectrometer. Compound purity was calculated using the following formula: 100−((sum impurity peaks)/((total impurity peaks)+(total purity peaks))*100).

[2] = Water absorption (hygroscopicity): water weight gain of the solid; type: physicochemical; conditions: for Weight Gain relative to Reference (%): 1 millimole solid in open vial in 4 liter vessel with 100 milliliters exposed water, 18 hours, reference triphenylsulfonium camphorsulfonate; for Matter State After Exposure to Water: after 18 hours exposure to water vapour
Experimental: Compounds that absorb atmospheric moisture may cause inaccurate amount additions into formulations and are also difficult to handle. […] To quantify this characteristic, 1 millimole of each solid was placed in an open vial and enclosed in a 4 liter vessel containing 100 milliliters of exposed water. The weight of each vial was prerecorded and reweighed 18 hours later to determine the water weight gain.

Row | Compound | Compound Purity (%) 0 days [1] | Compound Purity (%) 3 days [1] | Compound Purity (%) 14 days [1] | Compound stability (in words) ([1]; up to 14 days) | Weight Gain relative to Reference (%) [2] | Matter State Before Exposure to Water [2] | Matter State After Exposure to Water [2] | Hygroscopicity (in words) [2]
1 | Triphenylsulfonium pentafluorophenolate [Example 1] | 100% | 100% | 100% | substantially more stable than triphenylsulfonium phenolate | 29% | Solid |  | 
2 | 5-Phenyl-5H-dibenzo[b,d]thiophen-5-ium 3,5-bis(trifluoromethyl)-phenolate [Example 4] |  |  |  |  | −14% | Solid | Solid | 
3 | 5-Phenyl-5H-dibenzo[b,d]thiophen-5-ium 2,3,4,5,6-pentafluorophenolate [Example 2] |  |  |  |  | 43% | Solid | Solid | hygroscopic
4 | 5-Phenyl-5H-dibenzo[b,d]thiophen-5-ium 2,3,5,6-tetrafluorophenolate [Example 3] |  |  |  |  | 29% | Solid | Solid | 
5 | triphenylsulfonium camphorsulfonate [reference compound] | 100% | 100% | 100% |  |  | Solid | Solid | 
6 | 5-(4-(tert-Butyl)phenyl)-5H-dibenzo[b,d]thiophen-5-ium 2,3,4,5,6-pentafluorophenolate [Example 5] |  |  |  |  | −29% | Solid | Solid | 
7 | Cc1cc(-[s+]2c3ccccc3c3ccccc32)cc(C)c1OCC(=O)OC1(C)C2CC3CC(C2)CC1C3.[O-]c1c(F)c(F)c(F)c(F)c1F [Example 6, 5-(3,5-Dimethyl-4-(2-(((1R,3S,5r,7r)-2-methyladamantant-2-yl)oxy)-2-oxoethoxy)phenyl)-5H-dibenzo[b,d]thiophen-5-ium 2,3,4,5,6-pentafluorophenolate] |  |  |  |  | −43% | Solid |  | 
